The source of these data is patent publication US5091367A, “Analogs of gonadoliberin with improved solubility, methods for their preparation, agents containing them and their use” (Hoechst Aktiengesellschaft, priority 1986, dated 1992).

Converted amounts (≈) assume the structure as drawn.

Series [1] in a line: solubility in a neutral buffer used for nasal application. The conditions noted are these: well compatible neutral buffer as used for nasal application of protirelin.
The next series deals with rat super-ovulation. Briefly: biological activity in rat super-ovulation. Type of series: in vivo.

For the compound `CCNC(=O)[C@@H]1CCCN1C(=O)[C@H](CCCNC(=N)N)NC(=O)[C@H](CC(C)C)NC(=O)[C@@H](COC(C)(C)C)NC(=O)[C@H](Cc1ccc(O)cc1)NC(=O)[C@H](CO)NC(=O)[C@H](Cc1c[nH]c2ccccc12)NC(=O)[C@H](Cc1cnc[nH]1)NC(=O)[C@@H]1CCC(=O)N1` [Buserelin, Pgl--His--Trp--Ser--Tyr--D-Ser(tBu)--Leu--Arg--Pro--NH--C2 H5, reference compound], the “Solubility in neutral nasal buffer” value in series [1] was 1.25 mg/mL (≈ 1.01 mM). In addition, the “ED20-50 Super-ovul.” value in the series on rat super-ovulation amounted to 3 ng/rat.

On to `CCNC(=O)[C@@H]1CCCN1C(=O)[C@H](CCCNC(=N)N)NC(=O)[C@H](CC(C)C)NC(=O)[C@@H](Cc1c[nH]c2ccccc12)NC(=O)[C@H](Cc1ccc(O)cc1)NC(=O)[C@H](CO)NC(=O)[C@H](Cc1c[nH]c2ccccc12)NC(=O)[C@H](Cc1c[nH]cn1)NC(=O)[C@@H]1CCC(=O)N1` [LH--RH--T, Pgl--His--Trp--Ser--Tyr--D-Trp--Leu--Arg--Pro--NH--C2 H5, reference compound], for which the “ED20-50 Super-ovul.” value in the series with rat super-ovulation stood at 3 ng/rat.

With `CCNC(=O)[C@@H]1CCCN1C(=O)[C@H](CCCNC(=N)N)NC(=O)[C@H](CC(C)C)NC(=O)[C@@H](CO[C@H]1O[C@H](CO)[C@@H](O)[C@H](O)[C@@H]1O)NC(=O)[C@H](Cc1ccc(O)cc1)NC(=O)[C@H](CO)NC(=O)[C@H](Cc1c[nH]c2ccccc12)NC(=O)[C@H](Cc1c[nH]cn1)NC(=O)[C@@H]1CCC(=O)N1` [Pgl-His-Trp-Ser-Tyr-D-Ser(α-D-Man)-Leu-Arg-Pro-NH-C2 H5], the “Solubility in neutral nasal buffer” value in series [1] came out at 62.5 mg/mL (≈ 46.5 mM). Besides, the “ED20-50 Super-ovul.” value in the series with rat super-ovulation is recorded as 6 ng/rat.

Consider `CCNC(=O)[C@@H]1CCCN1C(=O)[C@H](CCCNC(=N)N)NC(=O)[C@H](CC(C)C)NC(=O)[C@@H](CO[C@@H]1O[C@H](CO)[C@@H](O)[C@H](O)[C@H]1O)NC(=O)[C@H](Cc1ccc(O)cc1)NC(=O)[C@H](CO)NC(=O)[C@H](Cc1c[nH]c2ccccc12)NC(=O)[C@H](Cc1c[nH]cn1)NC(=O)[C@@H]1CCC(=O)N1` [Pgl-His-Trp-Ser-Tyr-D-Ser(β-D-Glc)-Leu-Arg-Pro-NH-C2 H5], for which the “Solubility in neutral nasal buffer” value in series [1] came to 125.0 mg/mL (≈ 92.9 mM). Further, the “ED20-50 Super-ovul.” value in the series on rat super-ovulation was found to be 12 ng/rat.

As to `CCNC(=O)[C@@H]1CCCN1C(=O)[C@H](CCCNC(=N)N)NC(=O)[C@H](CC(C)C)NC(=O)[C@@H](CO[C@H]1O[C@@H](C)[C@@H](O)[C@@H](O)[C@@H]1O)NC(=O)[C@H](Cc1ccc(O)cc1)NC(=O)[C@H](CO)NC(=O)[C@H](Cc1c[nH]c2ccccc12)NC(=O)[C@H](Cc1c[nH]cn1)NC(=O)[C@@H]1CCC(=O)N1` [Pgl-His-Trp-Ser-Tyr-D-Ser(β-L-Fuc)-Leu-Arg-Pro-NH-C2 H5], the “Solubility in neutral nasal buffer” value in series [1] came out at 167.0 mg/mL (≈ 126 mM). Also, the “ED20-50 Super-ovul.” value in the series with rat super-ovulation was determined as 6 ng/rat.

For the compound `CCNC(=O)[C@@H]1CCCN1C(=O)[C@H](CCCNC(=N)N)NC(=O)[C@H](CO[C@H]1O[C@H](CO)[C@@H](O)[C@H](O)[C@@H]1O)NC(=O)[C@@H](Cc1c[nH]c2ccccc12)NC(=O)[C@H](Cc1ccc(O)cc1)NC(=O)[C@H](CO)NC(=O)[C@H](Cc1c[nH]c2ccccc12)NC(=O)[C@H](Cc1c[nH]cn1)NC(=O)[C@@H]1CCC(=O)N1` [Pgl-His-Trp-Ser-Tyr-D-Trp-Ser(α-D-Man)-Arg-Pro-NH-C2 H5], the “Solubility in neutral nasal buffer” value in series [1] amounted to 3.3 mg/mL (≈ 2.33 mM). Further, in the series on rat super-ovulation, the “ED20-50 Super-ovul.” value was above 24 ng/rat.

On to `CCNC(=O)[C@@H]1CCCN1C(=O)[C@H](CCCNC(=N)N)NC(=O)[C@H](CO[C@@H]1O[C@H](CO)[C@@H](O)[C@H](O)[C@H]1O)NC(=O)[C@@H](Cc1c[nH]c2ccccc12)NC(=O)[C@H](Cc1ccc(O)cc1)NC(=O)[C@H](CO)NC(=O)[C@H](Cc1c[nH]c2ccccc12)NC(=O)[C@H](Cc1c[nH]cn1)NC(=O)[C@@H]1CCC(=O)N1` [Pgl-His-Trp-Ser-Tyr-D-Trp-Ser(β-D-Glc)-Arg-Pro-NH-C2 H5], for which the “Solubility in neutral nasal buffer” value in series [1] was found to be 2.5 mg/mL (≈ 1.76 mM). Also, the “ED20-50 Super-ovul.” value with rat super-ovulation was 6 ng/rat.

As for “Pgl--His--Trp--Ser--Tyr--D-Trp--Ser(β-D-Gal)--Arg--Pro--NH--C2 H5”, in series [1], the “Solubility in neutral nasal buffer” value turned out to be 10 mg/mL.
